For three compounds, IC50 results are on record in PMC6563140, “Azaphilones from the Marine Sponge-Derived Fungus Penicillium sclerotiorum OUCMDZ-3839” (Marine Drugs, 2019).

Molecules are shown by their SMILES.

In assay [1] the target is α-glycosidase. Nature of the assay: PNPG enzyme inhibition assay. The assay is classed as biochemical.
For assay [2], the target named is α-glycosidase. Nature of the assay: PNPG enzyme inhibition assay, reference inhibitor. Format: biochemical.

`CC[C@H](C)/C=C(C)/C=C/C1=CC2=C(Cl)C(=O)[C@]3(C)OC(=O)[C@@H](C(C)=O)[C@@H]3C2=CO1` [compound 11, isochromophilone I]: the IC50 – broadly, the concentration needed to halve the response being measured – against α-glycosidase [1] is 17.3 µM. For the compound `C[C@H]1O[C@H](O[C@H]2[C@H](O)[C@@H](O)[C@@H](O[C@H]3[C@H](O)[C@@H](O)C(O)O[C@@H]3CO)O[C@@H]2CO)[C@H](O)[C@@H](O)[C@@H]1N[C@H]1C=C(CO)[C@@H](O)[C@H](O)[C@H]1O` (stereo partly drawn) [acarbose], the concentration for half-maximal inhibition (IC50) on α-glycosidase [2] came out at 1100 µM. The compound `CC[C@H](C)/C=C(C)/C=C/C1=CC2=C(Cl)C(=O)[C@](C)(OC(C)=O)C(=O)C2=CN1` [compound 14, scleratioramine] displayed an IC50 against α-glycosidase [1] of 166 µM.
